We go through four compounds from ChEMBL document CHEMBL1158131, “Daryamides A-C, weakly cytotoxic polyketides from a marine-derived actinomycete of the genus Streptomyces strain CNQ-085” (J Nat Prod, 2006).

Molecules are shown by their SMILES. Values after ≈ are worked out from the molar mass of the structure shown. Active and inactive are the calls of the source. The rule behind the calls is not given here.

One assay relates to HCT-116. As to the kind of experiment: Cytotoxicity against human HCT116 cells. Format: functional, cell-based.
For a further assay, the system named is Staphylococcus aureus. As to the kind of experiment: Antibacterial activity against methicillin-resistant Staphylococcus aureus. Format: functional, organism-based.
Another assay deals with Candida albicans. As to the kind of experiment: Antifungal activity against Candida albicans. In kind it is functional.

Compound `CC(C)C/C=C/C=C/C(N)=O` had a half-maximal inhibitory concentration (IC50) in the assay with HCT-116 of 21.7 µg/mL (≈ 142 µM). Also, the result in the assay with Staphylococcus aureus and with Candida albicans was inactive.

Compound `CC(C)C/C=C/C=C/C(=O)NC1=C[C@@](O)(CCC(N)=O)[C@H](O)CC1=O` [DARYAMIDE A] displayed an IC50 in the assay with HCT-116 of 3.15 µg/mL (≈ 8.99 µM). Besides, the outcome in the assay with Staphylococcus aureus was inactive. Besides, 62.5 µg/mL (≈ 178 µM) was the least that counted as inhibitory with Candida albicans (MIC).

In the case of `CC(C)C/C=C/C=C/C(=O)NC1=CC(O)(CCC(N)=O)C=CC1=O` (configuration not stated) [DARYAMIDE B], the IC50 in the assay on HCT-116 stood at 9.99 µg/mL (≈ 30.1 µM). For the same compound, the result in the assay with Staphylococcus aureus was inactive. The compound further registered an MIC in the assay with Candida albicans of 125 µg/mL (≈ 376 µM).

In the case of `CC(C)/C=C/C=C/C(=O)NC1=CC(O)(CCC(N)=O)C=CC1=O` (configuration not stated) [DARYAMIDE C], the IC50 in the assay with HCT-116 stood at 10 µg/mL (≈ 31.5 µM). The outcome in the assay with Staphylococcus aureus and in the assay with Candida albicans was inactive.
